Measurements as given in patent publication US10196454B2, “Anti-PMEL17 antibodies and immunoconjugates” (GENENTECH, INC., priority 2012, dated 2019).
Where two headings read alike, the source gives them in different places.

B1: 14C10: anti-PMEL17 antibody that binds to the same deletion fragments as 17A9 (antibody, V domains shown)
VH: QVTLKESGPGILQPSQTLSLTCSFSGFSLSTSAMGIGWIRQPSGKGLEWLAHIWWDDDKRYNPALKSRLTISKDTSRNQVFLKIASVDTADTATYFCARIDGIYDGSFYAMDYWGQGTSVTVSS
VL: DIVLTQSPASLAVSLGQRATISCRASESVDSYGNSFMHWYQQKPGQPPKLLIYRASNLESGIPARFSGSGSRTDFTLTINPVEADDVANYYCQQSNEDYTFGGGTKLEIK
B2: 17A9 ADC (conjugate)
VH: EVQLQQSGPELVKPGASMKISCKSSGYSFTRYTMNWVKQSHGKNLEWIGVINPYNGGTVYNQKFKGKATLTVDKSSSTAYMELLSLTSEDSAVYYCARTDYDGYAMDYWGQGTSVTVSS
VL: DVQITQSPSYLAASPGETITINCRATKSISKYLAWYQEQPGKTNNLLIYSGSTLQSGIPSRFSGSGSGTDFTLTISSLEPEDFAMYYCQQHNEYPYTFGSGTKLEIK
B3: anti-PMEL17-vc-MMAE: anti-PMEL17 ADC with protease-cleavable val-cit linker and MMAE (17A9 or ch17A9 with MC-vc-PAB-MMAE) (conjugate)
VH: B2 VH
VL: B2 VL

Key:
[1] = test system: in vitro derived resistant UACC-257X2.2 cells; assay: In vitro cell proliferation (CellTiter-Glo, five days); format: cell-based; conditions: in vitro derived resistant line
Procedure: For resistance developed in vitro, UACC-257X2.2 cells were adapted to increasing concentrations of anti-ETBR-vc-MMAE in culture dishes over the course of two months.
(§1) In vitro cell proliferation of the cell lines in the presence of the immunoconjugates was assessed. Cells were plated at 1,500 cells per well in 50 μL of normal growth medium in 96-well clear-bottom plates. Twenty-four hours later, an additional 50 μL of culture medium with serial dilutions of immunoconjugates were added to triplicate wells. Five days later, cell survival was determined using CellTiter-Glo Luminescent Cell Viability Reagent (G7572, Promega Corporation, Madison, Wis.) using an EnVision 2101 Mutilabel Reader (Perkin-Elmer, Waltham, Mass.).

[2] = test system: in vivo derived resistant UACC-257X2.2 cells; assay: as above; format: cell-based; conditions: in vivo derived resistant line
Procedure: Tumor #359 was harvested and the cells were dissociated for growth in vitro (referred to herein as in vivo-derived resistant UACC-257X2.2 cells).
as §1

[3] = test system: parental UACC-257X2.2 cells; assay: as above; format: cell-based; conditions: parental line
Procedure: as §1

human PMEL17 = assay: Monoclonal antibody epitope mapping with PMEL17 deletion mutants (immunoblot, FACS); format: binding; conditions: N-terminal deletions by immunoblot; C-terminal deletions in 293 cells by FACS
Procedure: All the constructs for epitope mapping were made by PCR amplification of each fragment and subcloning into either pRKtkneo vector with an N-terminal gD tag, or pRKtkneo vector with an N-terminal gD tag and a C-terminal GPI anchor. Transfections were performed using FuGene 6 (Roche Applied Science), and empty vector was used as control. Full-length human PMEL17 was subcloned into pRKtkneo vector with an N-terminal gD tag.
A signal sequence and a gD epitope tag were fused to the N-terminal sequence of a series of deletion mutants, which were then expressed in mammalian cells and the lysates analyzed by immuoblotting for reactivity with 17A9 or 77E6. The N-terminal deletions tested included Δ100, Δ255, Δ292, Δ315, Δ444, Δ515, and Δ567.
In addition, C-terminal deletions with an N-terminal gD tag and a C-terminal GPI anchor were transiently transfected into 293 cells and analyzed for antibody binding by FACS. The C-terminal deletions tested included PMEL1725-125, PMEL1725-105, PMEL1725-85, PMEL1725-65, and PMEL1725-45. Finally, a PMEL17 fragment comprising the region from amino acid 515 through the transmembrane domain, but lacking the cytoplasmic region (“Δ515-C”) and a PMEL17 fragment comprising just the cytoplasmic domain with an N-terminal gD tag and a C-terminal GPI anchor were analyzed by immuoblotting for reactivity with 77E6.

[4] = test system: SK-MEL-23 melanoma cell line xenograft; assay: SK-MEL-23 melanoma cell line xenograft; format: in vivo, mice; conditions: single IV injection, 6 mg/kg
Procedure: The efficacy of the anti-PMEL17 ADCs was investigated using an SK-MEL-23 melanoma cell line xenograft model. Female CRL Nu/Nu mice from Charles River Laboratories were inoculated subcutaneously in the dorsal right flank with five million SK-MEL-23 cells in HBSS with Matrigel. […] When tumor volumes reached ˜200 mm^3 (day 0), animals were randomized into groups of 10 each and administered a single IV injection of 2 or 6 mg/kg 17A9 ADC. MMAE conjugated to anti-GP120 antibody was used as a control. Tumor volumes were measured twice per week until study end. Tumor volumes were determined using digital calipers (Fred V. Fowler Company, Inc.) using the formula (L×w×W)/2. Tumor growth inhibition (% TGI) was calculated as the percentage of the area under the fitted curve (AUC) for the respective dose group per day in relation to the vehicle, such that % TGI=100×[1−(AUCtreatment/day)/(AUCvehicle/day)]. Curve fitting was applied to Loge transformed individual tumor volume data using a linear mixed-effects model using the R package nlme, version 3.1-96 in R v2.10.1.

[5] = test system: vector control PC3 parental cell line; assay: Inhibition of in vitro cell proliferation (CellTiter-GloII); format: cell-based; conditions: out to 10 μg/ml of ADC
[6] = test system: PC3 cells stably expressing PMEL17; assay: as above; format: cell-based
Procedure: Proliferation in the presence of 17A9 ADC was assessed using PMEL17+ melanoma cells and PC3 cells stably expressing PMEL17 plated at 2,000 per well in 50 μL of normal growth medium in 96-well clear-bottom plates (PerkinElmer). Twenty-four hours later, an additional 50 μL of culture medium with serial dilutions of 17A9 ADC were added to triplicate wells. Three or five days later, cell numbers were determined using CellTiter-GloII (Promega Corp.) and with an EnVision 2101 Mutilabel Reader (PerkinElmer).

normal human melanocytes = assay: Toxicity of anti-PMEL17 ADC in normal melanocytes (CellTiter-GloII, five days); format: cell-based; conditions: versus SK-MEL-5 and SK-MEL-23, five days
Procedure: Finally, SK-MEL-5 and SK-MEL-23 melanoma cells, or normal human melanocytes, were incubated with serial dilutions of the 17A9 ADC and five days later cell numbers were determined using CellTiter-GloII.

[7] = linker-drug without antibody, read-out: EC50

Molecule	EC50 [1, 7] [nM]	EC50 [2, 7] [nM]	EC50 [3, 7] [nM]	further results
MC-PNU-159682	0.15	0.133	0.18	
MC-vc-PAB-MMAE	3.5	0.77	0.28	
MC-vc-PAB-PNU-159682	6.6	4.2	2	
B1				binding to PMEL17 deletion mutants (human PMEL17): binds to the same deletion fragments as 17A9
B2				effect on tumor growth [4]: retard tumor growth for several weeks; cell killing [5]: no killing; cell killing [6]: effectively killed; IC50 on normal melanocytes relative to melanoma cell lines (normal human melanocytes): ~100 fold
B3				EC50 ([1]; immunoconjugates): 0.764 µg/mL; EC50 ([2]; immunoconjugates): 0.119 µg/mL; EC50 ([3]; immunoconjugates): 0.033 µg/mL
